Assay results taken from US20240360082A1, “SUBSTITUTED PYRIDONE COMPOUNDS USEFUL TO TREAT ORTH[…]” (priority 2021, published 2024).

Target: influenza A virus minigenome (PB2, PB1, PA, NP proteins) (UniProt P04665)
Assay type: cell-based
Settings: read-out: RNP_ Hubei B IC50

Chain of influenza A virus minigenome (PB2, PB1, PA, NP proteins) (P04665 whole entry): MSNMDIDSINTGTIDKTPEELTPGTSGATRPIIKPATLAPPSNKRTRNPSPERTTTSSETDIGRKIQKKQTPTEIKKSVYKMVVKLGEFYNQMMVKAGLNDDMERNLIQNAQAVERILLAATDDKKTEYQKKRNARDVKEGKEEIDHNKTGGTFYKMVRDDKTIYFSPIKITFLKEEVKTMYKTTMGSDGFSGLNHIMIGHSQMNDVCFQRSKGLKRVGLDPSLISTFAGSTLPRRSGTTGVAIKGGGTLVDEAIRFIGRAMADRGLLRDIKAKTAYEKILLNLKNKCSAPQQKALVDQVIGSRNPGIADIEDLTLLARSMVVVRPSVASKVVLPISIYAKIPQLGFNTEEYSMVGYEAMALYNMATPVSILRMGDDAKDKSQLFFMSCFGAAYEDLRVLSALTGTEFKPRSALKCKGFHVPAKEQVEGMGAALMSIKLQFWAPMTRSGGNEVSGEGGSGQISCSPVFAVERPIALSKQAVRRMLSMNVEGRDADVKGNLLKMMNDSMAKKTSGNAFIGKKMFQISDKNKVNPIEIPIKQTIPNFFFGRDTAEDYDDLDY

Q: How did the IC50 turn out when `NC(=O)c1cc(-c2ccc(OCC3COCCO3)cc2)c(C(F)(F)F)[nH]c1=O` (single isomer, unassigned) [Example 237, 5-(4-((1,4-dioxan-2-yl)methoxy)phenyl)-2-oxo-6-(trifluoromethyl)-1,2-dihydropyridine-3-carboxamide] was run?
A: The IC50 was 25 to 50 µM.

Q: With `CN1[C@H](COc2ccc(-c3cc(C(N)=O)c(=O)[nH]c3C(F)(F)F)cc2)COC[C@@H]1C1CC1` [Example 209, 5-(4-(((3S,5S)-5-cyclopropyl-4-methylmorpholin-3-yl)methoxy)phenyl)-2-oxo-6-(trifluoromethyl)-1,2-dihydropyridine-3-carboxamide] as the compound, how does the IC50 read?
A: The IC50 was 5 to 10 µM.

Q: With `NC(=O)c1cc(-c2ccc(OCc3ccon3)cc2)c(C(F)(F)F)[nH]c1=O` [Example 223, 5-(4-(isoxazol-3-ylmethoxy)phenyl)-2-oxo-6-(trifluoromethyl)-1,2-dihydropyridine-3-carboxamide] as the compound, how does the IC50 read?
A: The IC50 was 25 to 50 µM.

Q: `COCC1(COC)COC[C@@H](COc2ccc(-c3cc(C(N)=O)c(=O)[nH]c3C(F)(F)F)cc2)O1` [Example 414, (S)-5-(4-((6,6-bis(methoxymethyl)-1,4-dioxan-2-yl)methoxy)phenyl)-2-oxo-6-(trifluoromethyl)-1,2-dihydropyridine-3-carboxamide] was tested. Which IC50 did it give?
A: The IC50 was 5 to 10 µM.

Q: Which IC50 does the source give for `NC(=O)c1cc(-c2ccc(OCC3COCCN3C3CC3)cc2)c(C(F)(F)F)[nH]c1=O` (centres unmarked) [Example 248, 5-(4-((4-cyclopropylmorpholin-3-yl)methoxy)phenyl)-2-oxo-6-(trifluoromethyl)-1,2-dihydropyridine-3-carboxamide] here?
A: Its IC50 is 5 to 10 µM.

Q: How did the IC50 turn out when `C[C@@]12O[C@H](COc3ccc(-c4cc(C(N)=O)c(=O)[nH]c4C(F)(F)F)cc3)CO[C@@H]1C2(F)F` [Example 395, 55-(4-(((1R,3S,6S)-7,7-difluoro-1-methyl-2,5-dioxabicyclo[4.1.0]heptan-3-yl)methoxy)phenyl)-2-oxo-6-(trifluoromethyl)-1,2-dihydropyridine-3-carboxamide] was run?
A: Its IC50 is 5 to 10 µM.

Q: `CC(F)(F)C1COCC(COc2ccc(-c3cc(C(N)=O)c(=O)[nH]c3C(F)(F)F)cc2)O1` (single isomer, unassigned) [Example 359, 5-(4-((6-(1,1-difluoroethyl)-1,4-dioxan-2-yl)methoxy)phenyl)-2-oxo-6-(trifluoromethyl)-1,2-dihydropyridine-3-carboxamide] was tested. Which IC50 did it give?
A: Its IC50 is 5 to 10 µM.

Q: Which IC50 does the source give for `NC(=O)c1cc(-c2ccc(OCC3COCC(COCC4CC4)O3)cc2)c(C(F)(F)F)[nH]c1=O` (single isomer, unassigned) [Example 362, 5-(4-((6-((cyclopropylmethoxy)methyl)-1,4-dioxan-2-yl)methoxy)phenyl)-2-oxo-6-(trifluoromethyl)-1,2-dihydropyridine-3-carboxamide] here?
A: Its IC50 is 5 to 10 µM.

Q: How did the IC50 turn out when `C[C@]1(CC(F)F)COC[C@@H](COc2ccc(-c3cc(C(N)=O)c(=O)[nH]c3C(F)(F)F)cc2)O1` [Example 434, 5-(4-(((2S,6S)-6-(2,2-difluoroethyl)-6-methyl-1,4-dioxan-2-yl)methoxy)phenyl)-2-oxo-6-(trifluoromethyl)-1,2-dihydropyridine-3-carboxamide] was run?
A: The IC50 was 5 to 10 µM.

Q: With `CC1(OC[C@@]2(C)COC[C@@H](COc3ccc(-c4cc(C(N)=O)c(=O)[nH]c4C(F)(F)F)cc3)O2)COC1` [Example 429] as the compound, how does the IC50 read?
A: The IC50 was 5 to 10 µM.

Q: `NC(=O)c1cc(-c2ccc(OCC3(F)COCCO3)cc2)c(C(F)(F)F)[nH]c1=O` (centres unmarked) [Example 388, 5-(4-((2-fluoro-1,4-dioxan-2-yl)methoxy)phenyl)-2-oxo-6-(trifluoromethyl)-1,2-dihydropyridine-3-carboxamide] was tested. Which IC50 did it give?
A: The IC50 was 5 to 10 µM.

Q: How did the IC50 turn out when `NC(=O)c1cc(-c2ccc(OCC3COCC(COC4CC(F)(F)C4)O3)cc2)c(C(F)(F)F)[nH]c1=O` (single isomer, unassigned) [Example 367, 5-(4-((6-((3,3-difluorocyclobutoxy)methyl)-1,4-dioxan-2-yl)methoxy)phenyl)-2-oxo-6-(trifluoromethyl)-1,2-dihydropyridine-3-carboxamide] was run?
A: Its IC50 is 5 to 10 µM.

Q: How did the IC50 turn out when `NC(=O)c1cc(-c2ccc(OCC3COC(C(F)F)CO3)cc2)c(C(F)(F)F)[nH]c1=O` (single isomer, unassigned) [Example 345, 5-(4-((5-(difluoromethyl)-1,4-dioxan-2-yl)methoxy)phenyl)-2-oxo-6-(trifluoromethyl)-1,2-dihydropyridine-3-carboxamide] was run?
A: Its IC50 is 5 to 10 µM.

Q: `NC(=O)c1cc(-c2ccc(OC[C@H]3CO[C@H]4[C@@H](O3)C4(F)F)cc2)c(C(F)(F)F)[nH]c1=O` [Example 391, 5-(4-((trans-7,7-difluoro-2,5-dioxabicyclo[4.1.0]heptan-3-yl)methoxy)phenyl)-2-oxo-6-(trifluoromethyl)-1,2-dihydropyridine-3-carboxamide] was tested. Which IC50 did it give?
A: The IC50 was 1 to 5 µM.

Q: `CCc1cc(COc2ccc(-c3cc(C(N)=O)c(=O)[nH]c3C(F)(F)F)cc2)n(C)n1` [Example 262, 5-(4-((3-ethyl-1-methyl-1H-pyrazol-5-yl)methoxy)phenyl)-2-oxo-6-(trifluoromethyl)-1,2-dihydropyridine-3-carboxamide] was tested. Which IC50 did it give?
A: The IC50 was 25 to 50 µM.

Q: `C[C@@]1(CF)COC[C@@H](COc2ccc(-c3cc(C(N)=O)c(=O)[nH]c3C(F)(F)F)cc2)O1` [Example 419, 5-(4-(((2S,6S)-6-(fluoromethyl)-6-methyl-1,4-dioxan-2-yl)methoxy)phenyl)-2-oxo-6-(trifluoromethyl)-1,2-dihydropyridine-3-carboxamide] was tested. Which IC50 did it give?
A: The IC50 was 5 to 10 µM.

Q: `C[C@H]1COC[C@@H](COc2ccc(-c3cc(C(N)=O)c(=O)[nH]c3C(F)(F)F)cc2)O1` [Example 330, 5-(4-(((2S,6S)-6-methyl-1,4-dioxan-2-yl)methoxy)phenyl)-2-oxo-6-(trifluoromethyl)-1,2-dihydropyridine-3-carboxamide] was tested. Which IC50 did it give?
A: Its IC50 is 25 to 50 µM.

Same assay, conditions: read-out: RNP_Hubei B

Q: With `NC(=O)c1cc(-c2ccc(OCc3cncc(C4(O)COC4)c3)cc2)c(C(F)(F)F)[nH]c1=O` [Example 181, 5-(4-((5-(3-hydroxyoxetan-3-yl)pyridin-3-yl)methoxy)phenyl)-2-oxo-6-(trifluoromethyl)-1,2-dihydropyridine-3-carboxamide] as the compound, how does the IC50 read?
A: The IC50 was 25 to 50 µM.

Q: How did the IC50 turn out when `COC1CCOC(COc2ccc(-c3cc(C(N)=O)c(=O)[nH]c3C(F)(F)F)cc2)C1` (single isomer, unassigned) [Example 203, 5-(4-((4-methoxytetrahydro-2H-pyran-2-yl)methoxy)phenyl)-2-oxo-6-(trifluoromethyl)-1,2-dihydropyridine-3-carboxamide] was run?
A: The IC50 was 25 to 50 µM.

Q: `CC(C)CS(=O)(=O)N1CCCOC(COc2ccc(-c3cc(C(N)=O)c(=O)[nH]c3C(F)(F)F)cc2)C1` (centres unmarked) [Example 198, 5-(4-((4-(isobutylsulfonyl)-1,4-oxazepan-2-yl)methoxy)phenyl)-2-oxo-6-(trifluoromethyl)-1,2-dihydropyridine-3-carboxamide] was tested. Which IC50 did it give?
A: The IC50 was 25 to 50 µM.

Q: For `COc1ccc(-c2cc(C(N)=O)c(=O)[nH]c2C(F)(F)F)cc1Cl` [Example 18, 5-(3-chloro-4-methoxyphenyl)-2-oxo-6-(trifluoromethyl)-1,2-dihydropyridine-3-carboxamide], which IC50 is on record?
A: Its IC50 is 10 to 25 µM.

Q: For `C=CCCC(Oc1ccc(-c2cc(C(N)=O)c(=O)[nH]c2C(F)(F)F)cc1)c1cccnc1` (centres unmarked) [Example 185, 2-oxo-5-(4-((1-(pyridin-3-yl)pent-4-en-1-yl)oxy)phenyl)-6-(trifluoromethyl)-1,2-dihydropyridine-3-carboxamide], which IC50 is on record?
A: The IC50 was 10 to 25 µM.

Q: With `CC(Oc1ccc(-c2cc(C(N)=O)c(=O)[nH]c2C(F)(F)F)cc1)c1cccc(C#N)c1` (single isomer, unassigned) [Example 98, (R or S)-5-(4-(1-(3-cyanophenyl)ethoxy)phenyl)-2-oxo-6-(trifluoromethyl)-1,2-dihydropyridine-3-carboxamide] as the compound, how does the IC50 read?
A: The IC50 was 1 to 5 µM.

Q: How did the IC50 turn out when `COCOc1ccc(-c2cc(C(N)=O)c(=O)[nH]c2C(F)(F)F)cc1` [Example 13, 5-(4-(methoxymethoxy)phenyl)-2-oxo-6-(trifluoromethyl)-1,2-dihydropyridine-3-carboxamide] was run?
A: The IC50 was 25 to 50 µM.

Q: Which IC50 does the source give for `CC(Oc1ccc(-c2cc(C(N)=O)c(=O)[nH]c2C(F)(F)F)cc1)c1cncnc1` (single isomer, unassigned) [Example 95, (R or S)-2-oxo-5-(4-(1-(pyrimidin-5-yl)ethoxy)phenyl)-6-(trifluoromethyl)-1,2-dihydropyridine-3-carboxamide] here?
A: The IC50 was 25 to 50 µM.

Q: How did the IC50 turn out when `NC(=O)c1cc(-c2cccc(N)c2)c(C(F)(F)F)[nH]c1=O` [Example 7, 5-(3-aminophenyl)-2-oxo-6-(trifluoromethyl)-1,2-dihydropyridine-3-carboxamide] was run?
A: Its IC50 is 25 to 50 µM.

Q: With `C[C@H]1COCC(COc2ccc(-c3cc(C(N)=O)c(=O)[nH]c3C(F)(F)F)cc2)N1C` (stereo partly drawn) [Example 208, 5-(4-(((5S)-4,5-dimethylmorpholin-3-yl)methoxy)phenyl)-2-oxo-6-(trifluoromethyl)-1,2-dihydropyridine-3-carboxamide] as the compound, how does the IC50 read?
A: Its IC50 is 5 to 10 µM.

Q: Which IC50 does the source give for `CN1CCC(COc2ccc(-c3cc(C(N)=O)c(=O)[nH]c3C(F)(F)F)cc2)CC1` [Example 83, 5-(4-((1-methylpiperidin-4-yl)methoxy)phenyl)-2-oxo-6-(trifluoromethyl)-1,2-dihydropyridine-3-carboxamide] here?
A: Its IC50 is 25 to 50 µM.

Q: For `NC(=O)c1cc(-c2ccc(OCC3CCCOC3)cc2)c(C(F)(F)F)[nH]c1=O` (centres unmarked) [Example 102, 2-oxo-5-(4-((tetrahydro-2H-pyran-3-yl)methoxy)phenyl)-6-(trifluoromethyl)-1,2-dihydropyridine-3-carboxamide], which IC50 is on record?
A: The IC50 was 5 to 10 µM.

Q: `CN1C(COc2ccc(-c3cc(C(N)=O)c(=O)[nH]c3C(F)(F)F)cc2)COCC1(C)C` (centres unmarked) [Example 207, 2-oxo-6-(trifluoromethyl)-5-(4-((4,5,5-trimethylmorpholin-3-yl)methoxy)phenyl)-1,2-dihydropyridine-3-carboxamide] was tested. Which IC50 did it give?
A: Its IC50 is 5 to 10 µM.

Q: Which IC50 does the source give for `NC(=O)c1cc(-c2ccc(CN3CCOCC3c3cccnc3)cc2)c(C(F)(F)F)[nH]c1=O` (centres unmarked) [Example 32, 2-oxo-5-(4-((3-(pyridin-3-yl)morpholino)methyl)phenyl)-6-(trifluoromethyl)-1,2-dihydropyridine-3-carboxamide] here?
A: The IC50 was 25 to 50 µM.

Q: Which IC50 does the source give for `NC(=O)c1cc(-c2ccc(CN3CCCC3)cc2)c(C(F)(F)F)[nH]c1=O` [Example 5, 2-oxo-5-(4-(pyrrolidin-1-ylmethyl)phenyl)-6-(trifluoromethyl)-1,2-dihydropyridine-3-carboxamide] here?
A: The IC50 was 25 to 50 µM.
